For orientation: melting point means the temperature of the solid-liquid transition.

The structures appear in SMILES notation.

Here are results for six molecules from patent US6756371B1, “Phthalazinone derivatives as PDE4 inhibitors” (Altana Pharma AG, priority 1999, dated 2004).

In data set [1] the test system is PDE4. The data set is described as follows: Inhibition of PDE4 activity (method of Bauer and Schwabe, adapted to microtitre plates). Format: biochemical. The procedure:
Inhibition f PDE 4 Activity
The activity test was carried out according to the method of Bauer and Schwabe, which was adapted to microtitre plates (Naunyn-Schmiederberg's Arch. Pharmacol. 311, 193-198. 1980). In this test, the PDE reaction is carried out in the first step. In a second step, the resultant 5′-nucleotide is cleaved to the uncharged nucleoside by a snake venom 5′-nucleotidase from Crotalus Atrox. In the third step, the nucleoside is separated from the remaining charged substrate on ion exchange columns. The columns are eluted directly into minivials using 2 ml of 30 mM ammonium formate (pH 6.0), to which a further 2 ml or scintillation fluid is added for counting.
The inhibitory values determined for the compounds according to the invention follow from the following table A, in which the numbers of the compounds correspond to the numbers of the examples.

`CCOc1ccc(C2=NN(c3ccc(C(=O)N4CCSCC4)cc3)C(=O)[C@H]3CC=CC[C@@H]23)cc1OCC` (relative stereo) [compound 3, (cis)-4-(3,4-Diethoxyphenyl)-2-[4-(1-thiomorpholin-4-ylcarbonyl)phenyl]-4a,5,8,8a-tetrahydro-2H-phthalazin-1-one] came in with a melting point of 104 to 106 °C. The “Inhibition of PDE4 activity [measured as −logIC50 (mol/l)]” value in data set [1] amounted to 7.82. On to `CCOc1ccc(C2=NN(c3ccc(C(=O)N4CCS(=O)(=O)CC4)cc3)C(=O)[C@H]3CC=CC[C@@H]23)cc1OCC` (relative stereo) [compound 6, (cis)-4-(3,4-Diethoxyphenyl)-2-[4-(1,1-dioxothiomorpholin-4-ylcarbonyl)phenyl]-4a,5,8,8a-tetrahydro-2H-phthalazin-1-one], for which the melting point lay in the range of 186 to 187 °C. Further, the “Inhibition of PDE4 activity [measured as −logIC50 (mol/l)]” value in data set [1] was 7.81. In turn, `CCOc1ccc(C2=NN(c3ccc(C(=O)N4CCOCC4)cc3)C(=O)C3CC=CCC23)cc1OCC` (stereo not drawn) [compound 1, (cis)-4-(3,4-Diethoxyphenyl)-2-[4-(N-morpholinocarbonyl)phenyl]-4a,5,8,8a-tetrahydro-2H-phthalazin-1-one] returned a melting point of 144 to 145 °C. For the same molecule, the “Inhibition of PDE4 activity [measured as −logIC50 (mol/l)]” value in data set [1] was determined as 7.99. Consider `COc1ccc(C2=NN(c3ccc(C(=O)N4CCOCC4)cc3)C(=O)C3CC=CCC23)c2c1OC(C)(C)C2` (stereo not drawn) [compound 2, (cis)-4-(2,3-Dihydro-2,2-dimethyl-7-methoxybenzofuran-4-yl)-2-[4-(N-morpholinocarbonyl)-phenyl]-4a,5,8,8a-tetrahydro-2H-phthalazin-1-one], for which the “Inhibition of PDE4 activity [measured as −logIC50 (mol/l)]” value in data set [1] was determined as 8.77. Consider `CCOc1ccc(C2=NN(c3ccc(S(=O)(=O)N4CCOCC4)cc3)C(=O)C3CC=CCC23)cc1OCC` (stereo not drawn) [compound 4, (cis)-4-(3,4-Diethoxyphenyl)-2-[4-(N-morpholinosulfonyl)phenyl]-4a,5,8,8a-tetrahydro-2H-phthalazin-1-one], for which the “Inhibition of PDE4 activity [measured as −logIC50 (mol/l)]” value in data set [1] came to 9.22.

As to `COc1ccc(C2=NN(c3ccc(S(=O)(=O)N4CCOCC4)cc3)C(=O)C3CC=CCC23)c2c1OC(C)(C)C2` (stereo not drawn) [compound 5, (cis)-4-(2,3-Dihydro-2,2-dimethyl-7-methoxybenzofuran-4-yl)-2-[4(N-morpholinosulfonyl)phenyl]-4a,5,8,8a-tetrahydro-2H-phthalazin-1-one], in data set [1], the “Inhibition of PDE4 activity [measured as −logIC50 (mol/l)]” value is given as 9.71.
